Reference: patent US9834558B2, “Substituted bridged urea analogs as sirtuin modulators” (GLAXOSMITHKLINE LLC, priority 2013, dated 2017)

Molecular target: T1, SIRT1 (Homo sapiens, UniProt Q96EB6)
T1 sequence (Q96EB6 1-747): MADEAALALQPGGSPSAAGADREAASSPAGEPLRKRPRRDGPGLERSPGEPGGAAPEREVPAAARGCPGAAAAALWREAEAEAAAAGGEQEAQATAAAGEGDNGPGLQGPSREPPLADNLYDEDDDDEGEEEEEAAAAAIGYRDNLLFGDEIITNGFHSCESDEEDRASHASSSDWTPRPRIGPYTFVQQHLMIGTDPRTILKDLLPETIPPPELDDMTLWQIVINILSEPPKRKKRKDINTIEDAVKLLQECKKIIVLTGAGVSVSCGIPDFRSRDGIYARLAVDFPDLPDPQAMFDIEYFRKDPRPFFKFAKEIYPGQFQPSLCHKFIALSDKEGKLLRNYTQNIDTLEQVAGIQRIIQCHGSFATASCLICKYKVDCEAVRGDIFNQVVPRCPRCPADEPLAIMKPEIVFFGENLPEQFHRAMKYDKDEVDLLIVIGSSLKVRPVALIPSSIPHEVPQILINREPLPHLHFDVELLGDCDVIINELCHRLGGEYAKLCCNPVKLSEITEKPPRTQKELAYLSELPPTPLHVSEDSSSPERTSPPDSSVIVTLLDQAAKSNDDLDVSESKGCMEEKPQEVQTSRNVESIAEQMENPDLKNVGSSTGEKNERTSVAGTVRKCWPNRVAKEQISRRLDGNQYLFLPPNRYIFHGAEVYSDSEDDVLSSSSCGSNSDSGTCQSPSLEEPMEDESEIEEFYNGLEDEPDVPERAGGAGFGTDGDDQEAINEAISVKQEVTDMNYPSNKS
Experiment: Trp mass spectrometry assay of SIRT1 activation
Type: biochemical
Details: for TRP Activity (EC1.5) / Emax: Trp peptide assay; for TRP Activity (EC1.5): EC1.5 = concentration that results in 150% activation of SIRT1; for Emax: maximum activity relative to control (100%), read-out: TRP MAX RESP (percent maximum fold activation)
Excerpt: Mass spectrometry based assays were used to identify modulators of SIRT1 activity. […] The peptide was labeled with the fluorophore STMR (excitation 540 nm/emission 580 nm) at the C-terminus. The sequence of the peptide substrate was based on p53 with several modifications. In addition, the methionine residue naturally present in the sequence was replaced with the norleucine because the methionine may be susceptible to oxidation during synthesis and purification. The Trp based assay utilized a peptide having an amino acid residues as follows: Ac-R-H-K-K(Ac)-W-NH2 (SEQ ID NO: 2).
The Trp mass spectrometry assay was conducted as follows. 0.5 μM peptide substrate and 120 μM βNAD^+ were incubated with 10 nM SIRT1 for 25 minutes at 25° C. in a reaction buffer (50 mM HEPES pH 7.5, […], 1 mM DTT, 0.05% BSA). The SIRT1 protein was obtained by cloning the SirT1 gene into a T7-promoter containing vector, which was then expressed in BL21(DE3) bacterial cells and purified as described in further detail below. Test compound was added at varying concentrations to this reaction mixture and the resulting reactions were monitored. After the 25 minute incubation with SIRT1, 10 μL of 10% formic acid was added to stop the reaction. The resulting reactions were sealed and frozen for later mass spec analysis. The relative SIRT1 activity was then determined by measuring the amount of O-acetyl-ADP-ribose (OAADPR) formed (or, alternatively, the amount of deacetylated Trp peptide generated) by the NAD-dependent sirtuin deacetylation reaction in the presence of varying concentrations of the test compound versus control reactions lacking the test compound. The degree to which the test agent activated deacetylation by SIRT1 was expressed as EC1.5 (i.e., the concentration of compound required to increase SIRT1 activity by 50% over the control lacking test compound), and Percent Maximum Activation (i.e., the maximum activity relative to control (100%) obtained for the test compound).
This time point was the same as that used for test compounds and, within the linear range, the endpoint represents a change in velocity.
For the above assay, SIRT1 protein was expressed and purified as follows. The SirT1 gene was cloned into a T7-promoter containing vector and transformed into BL21(DE3). The protein was expressed by induction with 1 mM IPTG as an N-terminal His-tag fusion protein at 18° C. overnight and harvested at 30,000×g. Cells were lysed with lysozyme in lysis buffer (50 mM Tris-HCl, 2 mM Tris[2-carboxyethyl]phosphine (TCEP), 10 μM ZnCl2, 200 mM NaCl) and further treated with sonication for 10 min for complete lysis. The protein was purified over a Ni-NTA column (Amersham) and fractions containing pure protein were pooled, concentrated and run over a sizing column (Sephadex S200 26/60 global). The peak containing soluble protein was collected and run on an Ion-exchange column (MonoQ). Gradient elution (200 mM-500 mM NaCl) yielded pure protein. This protein was concentrated and dialyzed against dialysis buffer (20 mM Tris-HCl, 2 mM TCEP) overnight. The protein was aliquoted and frozen at −80° C. until further use.
“NT” means not tested; “ND” means not determinable.

[1] = concentration giving 150% activation of SIRT1, Trp peptide substrate
[2] = Trp mass spectrometry assay, concentration of test compound giving 150% activation of SIRT1
[3] = Trp mass spectrometry assay, EC1.5 = concentration of test compound that results in 150% activation of SIRT1

| Compound | TRP Activity (EC1.5) | Emax [%] | further results |
| --- | --- | --- | --- |
| O=C(NC1CCOCC1)c1ccc2c(n1)N(C(=O)Nc1ccccn1)[C@H]1CCN2C1 [(9S)-5-N-(oxan-4-yl)-8-N-(pyridin-2-yl)-1,6,8-triazatricyclo[7.2.1.0 {2,7}]dodeca-2(7),3,5-triene-5,8-dicarboxamide] | B (B (EC1.5 1-25 μM)) | > 150 | – |
| CS(=O)(=O)c1cccc(-c2ccc3c(n2)N(C(=O)Nc2cccc(-c4cnco4)c2)[C@H]2CCN3C2)c1 [Example 710] | – | – | Tryp AVG EC1.5 (μM) [1]: A (A (EC1.5<1 μM)) |
| CC(C)(C)OC(=O)NCc1ccc(NC(=O)N2c3nc(-c4cccc(C(F)(F)F)c4)ccc3N3CC[C@H]2C3)cc1 [Example 793] | – | – | Tryp AVG EC1.5 (μM) [1]: B (B (EC1.5 1-25 μM)) |
| O=C(Nc1cncc(F)c1)N1c2nc(-c3ccnc(N4CCC(C(F)(F)F)C4)c3)ccc2N2CC[C@H]1C2 (stereo partly drawn) [Example 410] | – | – | Tryp AVG EC1.5 (μM) [2]: A (A (EC1.5<1 μM)) |
| O=C(Nc1cccc(-c2cnco2)c1)N1c2nc(N3CCC[C@@H](C(F)(F)F)C3)ccc2N2CC[C@H]1C2 [Example 717] | – | – | Tryp AVG EC1.5 (μM) [1]: A (A (EC1.5<1 μM)) |
| Cc1ccc(-c2ccc3c(n2)N(C(=O)Nc2ccncn2)[C@H]2CCCN3C2)cn1 [Example 479] | – | – | Tryp AVG EC1.5 (μM) [3]: B (B (EC1.5 1-25 μM)) |
| O=C(Nc1cccc(-c2cnco2)n1)N1c2nc(-c3cccc(Cl)c3)ccc2N2C[C@@H](O)[C@H]1C2 [Example 693] | – | – | Tryp AVG EC1.5 (μM) [1]: A (A (EC1.5<1 μM)) |
| CS(=O)(=O)c1cncc(-c2ccc3c(n2)N(C(=O)Nc2cnccn2)[C@H]2CCCN3C2)c1 [Example 378] | – | – | Tryp AVG EC1.5 (μM) [2]: A (A (EC1.5<1 μM)) |
| O=C(Nc1ccncn1)N1c2nc(-c3cncc(C(F)(F)F)c3)ccc2N2C[C@@H](O)[C@H]1C2 [Example 700] | – | – | Tryp AVG EC1.5 (μM) [1]: B (B (EC1.5 1-25 μM)) |
| COc1cc(NC(=O)N2c3nc(-c4cnccc4C)ccc3N3CCC[C@H]2C3)ncn1 [Example 511] | – | – | Tryp AVG EC1.5 (μM) [3]: C (C (EC1.5>25 μM)) |
| Cc1c(-c2ccc3c(n2)N(C(=O)Nc2cccnc2)[C@H]2CCN3C2)cnn1C [Example 489] | – | – | Tryp AVG EC1.5 (μM) [3]: B (B (EC1.5 1-25 μM)) |
| NCCCc1ccc(NC(=O)N2c3nc(-c4cccc(C(F)(F)F)c4)ccc3N3CC[C@H]2C3)cc1-c1cnco1 [Example 765] | – | – | Tryp AVG EC1.5 (μM) [1]: A (A (EC1.5<1 μM)) |
| [N-]=[N+]=NCC(=O)NCc1ccc(NC(=O)N2c3nc(-c4cccc(C(F)(F)F)c4)ccc3N3CC[C@H]2C3)cc1 [Example 799] | – | – | Tryp AVG EC1.5 (μM) [1]: A (A (EC1.5<1 μM)) |
| O=C(Nc1cccnc1)N1c2nc(-c3cccc(Cl)c3)ccc2N2CCC[C@H]1C2 [Example 407] | – | – | Tryp AVG EC1.5 (μM) [2]: A (A (EC1.5<1 μM)) |
| CC1(C)CN(c2ccc3c(n2)N(C(=O)Nc2cnccn2)[C@H]2CCN3C2)CCO1 [(9S)-5-(2,2-dimethylmorpholin-4-yl)-N-(pyrazin-2-yl)-1,6,8-triazatricyclo[7.2.1.0 {2,7}]dodeca-2(7),3,5-triene-8-carboxamide] | A (A (EC1.5<1 μM)) | > 150 | – |
| COc1cc(NC(=O)N2c3nc(-c4cncc(F)c4)ccc3N3CCC2CC3)nc(OC)n1 [Example 578] | – | – | Tryp AVG EC1.5 (μM) [3]: B (B (EC1.5 1-25 μM)) |
| CCNC(=O)c1ccc2c(n1)N(C(=O)Nc1ccccn1)[C@H]1CCN2C1 [(9S)-5-N-ethyl-8-N-(pyridin-2-yl)-1,6,8-triazatricyclo[7.2.1.0 {2,7}]dodeca-2(7),3,5-triene-5,8-dicarboxamide] | A (A (EC1.5<1 μM)) | > 150 | – |
| C[C@H]1CNCCN1c1ccc2c(n1)N(C(=O)Nc1cnccn1)[C@H]1CCN2C1 [(9S)-5-[(2S)-2-methylpiperazin-1-yl]-N-(pyrazin-2-yl)-1,6,8-triazatricyclo[7.2.1.0 {2,7}]dodeca-2,4,6-triene-8-carboxamide] | C (C (EC1.5>25 μM)) | < 150 | – |
| CC(C)(C)OC(=O)NCc1ccc(NC(=O)N2c3nc(-c4cccc(C(F)(F)F)c4)ccc3N3CCC[C@H]2C3)cc1 [Example 445] | – | – | Tryp AVG EC1.5 (μM) [3]: A (A (EC1.5<1 μM)) |
| O=C(Nc1cccc(C2(C(F)(F)F)N=N2)c1)N1c2nc(-c3cccc(C(F)(F)F)c3)ccc2N2CCC[C@H]1C2 [Example 335] | – | – | Tryp AVG EC1.5 (μM) [2]: A (A (EC1.5<1 μM)) |
| COC(=O)N1CCCN(c2ccc3c(n2)N(C(=O)Nc2ccncn2)[C@H]2CCCN3C2)CC1 [Example 446] | – | – | Tryp AVG EC1.5 (μM) [3]: B (B (EC1.5 1-25 μM)) |

Now from value to compound, other results behind:

| TRP Activity (EC1.5) | Emax [%] | Compound | further results |
| --- | --- | --- | --- |
| C (C (EC1.5>25 μM)) | < 150 | N#Cc1ncc(-c2ccc3c(n2)N(C(=O)Nc2cnccn2)[C@H]2CCN3C2)cc1F [(9S)-5-(6-cyano-5-fluoropyridin-3-yl)-N-(pyrazin-2-yl)-1,6,8-triazatricyclo[7.2.1.0^2,7]dodeca-2(7),3,5-triene-8-carboxamide] | – |
| B (B (EC1.5 1-25 μM)) | > 150 | Cc1cc(-c2ccc3c(n2)N(C(=O)Nc2ccnnc2)[C@H]2CCN3C2)ccn1 [(9S)-5-(2-methylpyridin-4-yl)-N-(pyridazin-4-yl)-1,6,8-triazatricyclo[7.2.1.0^{2,7}]dodeca-2,4,6-triene-8-carboxamide] | – |
| B (B (EC1.5 1-25 μM)) | > 150 | O=C(Nc1ccccn1)N1c2nc(N3CCC[C@H](C(F)(F)F)C3)ccc2N2CCC[C@H]1C2 [drawing 1172, (9S)-N-(pyridin-2-yl)-5-[(3S)-3-(trifluoromethyl)piperidin-1-yl]-1,6,8-triazatricyclo[7.3.1.0 {2,7}]trideca-2(7),3,5-triene-8-carboxamide] | – |
| A (A (EC1.5<1 μM)) | > 150 | Cc1cc(-c2ccc3c(n2)N(C(=O)Nc2ccccn2)[C@H]2CCCN3C2)ccn1 [(9S)-5-(2-methylpyridin-4-yl)-N-(pyridin-2-yl)-1,6,8-triazatricyclo[7.3.1.0 {2,7}]trideca-2(7),3,5-triene-8-carboxamide] | – |
| B (B (EC1.5 1-25 μM)) | > 150 | O=C(Nc1cnccn1)N1c2nc(-c3ccn[nH]3)ccc2N2CC[C@H]1C2 [(9S)-N-(pyrazin-2-yl)-5-(1H-pyrazol-5-yl)-1,6,8-triazatricyclo[7.2.1.0 {2,7}]dodeca-2(7),3,5-triene-8-carboxamide] | – |
| A (A (EC1.5<1 μM)) | > 150 | O=C(Nc1cnccn1)N1c2nc(-c3ccnc(C(F)F)c3)ccc2N2CC[C@H]1C2 [(9S)-5-[2-(difluoromethyl)pyridin-4-yl]-N-(pyrazin-2-yl)-1,6,8-triazatricyclo[7.2.1.0 {2,7}]dodeca-2(7),3,5-triene-8-carboxamide] | – |
| A (A (EC1.5<1 μM)) | > 150 | O=C(Nc1ccnc(OC[C@H](O)CO)c1)N1c2nc(-c3cccc(C(F)(F)F)c3)ccc2N2CC[C@H]1C2 [(9S)-N-{2-[(2R)-2,3-dihydroxypropoxy]pyridin-4-yl}-5-[3-(trifluoromethyl)phenyl]-1,6,8-triazatricyclo[7.2.1.0 {2,7}]dodeca-2(7),3,5-triene-8-carboxamide] | – |
